Laboratory results from patent US9353090B2, “Heterocyclic carboxylic acids as activators of soluble guanylate cyclase” (Boehringer Ingelheim International GmbH, priority 2014, dated 2016).
pEC50: −log10 of the molar value. Converted amounts (≈) assume the structure as drawn.

What was measured:
[1] = physchem; details: kinetic from dmso stock
Experimental: Solubility is measured by the following method.
100 uL, 10 mM DMSO stock solution of each compound is prepared in a 96 well plate format. The experiment is done in single determination at 3 pH values (2.2, 4.5 and 6.8). For each pH and one reference, 40 uL of each compound is needed.
McIlvaine pH 2.2: To 2.076 g citric acid monohydrate and 0.043 g Na2HPO4×2H2O add 100 ml deionized water
McIlvaine pH 4.5: To 1.166 g citric acid monohydrate and 1.585 g Na2HPO4×2H2O add 100 ml deionized water
McIlvaine pH 6.8: To 0.476 g citric acid monohydrate and 2.753 g Na2HPO4×2H2O add 100 ml deionized water
With a suitable liquid handling device (Multipette® or a liquid handler) 390 uL of each buffer solution and 10 uL of compound is added to each well of a 96 deep well plate. The plates are covered firmly and shaken for 24 h on an over head shaker (at 54 RPM) at room temperature. The DMSO content in the final buffer is 2.5% v/v.
After 24 h the plates are centrifuged to remove droplets on the lid before opening (for ˜5 min at 2500 RPM).
The filtration is done under vacuum with Millipore 96 well filter plate. Filtrate is collected in a deep well plate and transferred to a suitable plate for UPLC analysis.
The reference plate is prepared by adding 10 uL of compound to 390 uL of 50:50 acetonitrile/water in a 96 deep well plate and transferred to a suitable plate for UPLC analysis. Wells are checked visually for precipitation, any presence noted under comments in reported results.
The samples are measured with UPLC-UV using the chromatographic method described below.
Waters Empower®2 software is used for generating Sample Sets (according to the plate layout), Sample Set Methods and Instrument Methods.
One Sample Set comprises the methods for three 96 well plates (one reference plate and two sample plates, and includes one Sample Set Method and one Instrument Method).
Data Processing and Analysis
The UV chromatograms collected at 254 nm are integrated and processed.
It is assumed that the compound is completely dissolved in the reference solution (50:50 acetonitrile/water)

[2] = Human liver microsome (HLM) metabolic stability assay; assay type: in vitro ADME; details: human liver microsomes
How it was run: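 Compound at 1 uM incubated with human liver microsomes at 37° C. for 60 min after NADPH addition. Aliquots quenched in cold acetonitrile at 0, 5, 15, 30 and 60 min and analysed by LC/MS/MS. t1/2 from ln(% remaining) vs time slope; CLint, CLh and % Qh derived from it (n=1).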

[3] = target: human soluble guanylate cyclase alpha 1 and beta 1 subunits (sGC) (Homo sapiens (Human), UniProt Q02108+Q02153); assay: sGC cellular activator assay (cGMP, HTRF), in the presence and absence of 50% human serum; assay type: cell-based; details: CHO cells stably expressing human sGC alpha 1/beta 1, preincubated with 40 microM ODQ; cGMP by HTRF; Table 2 does not state whether with or without 50% human serum
Chain of human soluble guanylate cyclase alpha 1 and beta 1 subunits (sGC) (Q02108 whole entry partner): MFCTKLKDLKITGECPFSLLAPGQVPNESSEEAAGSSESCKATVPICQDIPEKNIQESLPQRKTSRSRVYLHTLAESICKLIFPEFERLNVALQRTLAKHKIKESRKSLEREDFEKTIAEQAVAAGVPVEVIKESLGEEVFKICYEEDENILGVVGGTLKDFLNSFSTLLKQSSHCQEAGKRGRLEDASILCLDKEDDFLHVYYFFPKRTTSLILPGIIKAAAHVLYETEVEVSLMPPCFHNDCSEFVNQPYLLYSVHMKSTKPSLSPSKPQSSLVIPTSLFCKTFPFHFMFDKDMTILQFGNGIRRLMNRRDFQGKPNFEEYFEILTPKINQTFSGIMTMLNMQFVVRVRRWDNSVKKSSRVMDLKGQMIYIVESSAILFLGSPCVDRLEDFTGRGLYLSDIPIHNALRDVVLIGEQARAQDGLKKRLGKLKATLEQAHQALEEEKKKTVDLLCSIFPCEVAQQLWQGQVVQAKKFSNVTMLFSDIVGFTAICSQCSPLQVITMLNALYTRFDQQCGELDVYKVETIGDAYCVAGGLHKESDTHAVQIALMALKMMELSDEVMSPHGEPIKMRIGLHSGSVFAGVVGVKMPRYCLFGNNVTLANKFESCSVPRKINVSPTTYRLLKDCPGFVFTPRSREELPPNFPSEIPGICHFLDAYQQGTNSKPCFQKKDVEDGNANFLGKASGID
Chain of human soluble guanylate cyclase alpha 1 and beta 1 subunits (sGC) (Q02153 whole entry): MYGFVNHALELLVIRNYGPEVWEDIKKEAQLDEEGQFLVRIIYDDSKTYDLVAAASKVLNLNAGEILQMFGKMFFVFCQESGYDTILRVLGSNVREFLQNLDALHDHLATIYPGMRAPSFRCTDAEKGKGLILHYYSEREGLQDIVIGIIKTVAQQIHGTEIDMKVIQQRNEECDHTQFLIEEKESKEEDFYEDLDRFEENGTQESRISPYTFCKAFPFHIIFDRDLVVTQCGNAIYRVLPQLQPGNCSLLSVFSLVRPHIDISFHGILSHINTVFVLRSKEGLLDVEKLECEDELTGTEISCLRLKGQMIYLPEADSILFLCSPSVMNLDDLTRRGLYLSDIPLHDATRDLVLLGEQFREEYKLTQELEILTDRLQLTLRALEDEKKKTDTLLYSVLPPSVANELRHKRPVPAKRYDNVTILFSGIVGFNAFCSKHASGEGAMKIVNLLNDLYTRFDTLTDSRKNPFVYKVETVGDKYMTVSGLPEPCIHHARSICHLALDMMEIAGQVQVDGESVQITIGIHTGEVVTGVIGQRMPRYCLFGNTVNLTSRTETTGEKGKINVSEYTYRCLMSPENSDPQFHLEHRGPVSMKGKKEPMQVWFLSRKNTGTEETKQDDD
How it was run: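 Heme-oxidized conditions: ODQ (40 microM, 1 h) pretreatment of CHO cells stably expressing human α1/β1 sGC, in buffer containing 0.1% BSA and IBMX.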

[4] = pH 2.2, aqueous buffer, Solubility (pH 2.2)
[5] = pH 4.5, aqueous buffer, Solubility (pH 4.5)
[6] = pH 6.8, aqueous buffer, Solubility (pH 6.8)

| Compound | solubility at 24 h [1, 4] [µg/mL] | solubility at 24 h [1, 5] [µg/mL] | solubility at 24 h [1, 6] [µg/mL] | Metabolic stability (Qh %), % hepatic blood flow [2] [%] | pEC50 [3] |
| --- | --- | --- | --- | --- | --- |
| Cc1cccc(-c2csc(N3C[C@@H]4C[C@]4(C(=O)O)C3)n2)c1OCc1ccc2c(c1C)CCN(C1COC1)C2 [Compound 138] | 100 (≈ 188 µM) | 59 (≈ 111 µM) | 65 (≈ 122 µM) | <24 | 7.74 |
| Cc1cc(COc2c(C)cccc2-c2csc(N3C[C@@H]4C[C@]4(C(=O)O)C3)n2)cc2c1CN(C1COC1)CC2 [Compound 139] | 96 (≈ 181 µM) | 58 (≈ 109 µM) | 59 (≈ 111 µM) | <24 | 8.15 |
| Cc1cc(COc2c(C)cccc2-c2csc(N3C[C@@H]4C[C@]4(C(=O)O)C3)n2)cc2c1CN(C1CCOCC1)CC2 [Compound 140] | 100 (≈ 179 µM) | 73 (≈ 130 µM) | 60 (≈ 107 µM) | <24 | 8.30 |
| Cc1cccc(-c2csc(N3C[C@@H]4C[C@]4(C(=O)O)C3)n2)c1OCc1cc(C#N)c2c(c1)CCN(C1COC1)C2 [Compound 141] | 110 (≈ 203 µM) | 38 (≈ 70 µM) | 81 (≈ 149 µM) | <24 | 7.47 |
| Cc1cccc(-c2csc(N3C[C@@H]4C[C@]4(C(=O)O)C3)n2)c1OCc1cc(C#N)c2c(c1)CCN(C1CCOCC1)C2 [Compound 142] | 110 (≈ 193 µM) | 69 (≈ 121 µM) | 69 (≈ 121 µM) | <24 | 7.64 |
| Cc1cccc(-c2csc(N3C[C@@H]4C[C@]4(C(=O)O)C3)n2)c1OCc1ccc2c(c1C)CCN(C1COC1)CC2 [Compound 143] | 110 (≈ 202 µM) | 70 (≈ 128 µM) | 56 (≈ 103 µM) | <24 | 8.05 |
| Cc1cccc(-c2csc(N3C[C@@H]4C[C@]4(C(=O)O)C3)n2)c1OCc1ccc2c(c1C)CCN(C1CCOCC1)CC2 [Compound 144] | 110 (≈ 192 µM) | 74 (≈ 129 µM) | 62 (≈ 108 µM) | <24 | 8.00 |
| Cc1ccc(OCc2ccc3c(c2)CCN(C2CCOCC2)C3)c(-c2csc(N3C[C@@H]4C[C@]4(C(=O)O)C3)n2)c1 [Compound 145] | 110 (≈ 202 µM) | 62 (≈ 114 µM) | 28 (≈ 51.3 µM) | <24 | 6.79 |
| Cc1ccc(OCc2ccc3c(c2C)CCN(C2CCOCC2)C3)c(-c2csc(N3C[C@@H]4C[C@]4(C(=O)O)C3)n2)c1 [Compound 146] | 110 (≈ 197 µM) | 59 (≈ 105 µM) | 9.9 (≈ 17.7 µM) | 26 | 7.24 |
| Cc1ccc(OCc2ccc3c(c2)CCN(C2CCOCC2)CC3)c(-c2csc(N3C[C@@H]4C[C@]4(C(=O)O)C3)n2)c1 [Compound 147] | > 140 | < 0.1 | < 0.1 | <24 | 7.31 |
| Cc1ccc(OCc2ccc3c(c2)CCN(C2COC2)CC3)c(-c2csc(N3C[C@@H]4C[C@]4(C(=O)O)C3)n2)c1 [Compound 148] | 93 (≈ 175 µM) | 8.4 (≈ 15.8 µM) | 1.1 (≈ 2.07 µM) | <24 | 7.17 |
| Cc1ccc(OCc2ccc3c(c2C)CCN(C2COC2)CC3)c(-c2csc(N3C[C@@H]4C[C@]4(C(=O)O)C3)n2)c1 [Compound 149] | 98 (≈ 180 µM) | 37 (≈ 67.8 µM) | 35 (≈ 64.1 µM) | <24 | 7.47 |
| Cc1ccc(OCc2ccc3c(c2C)CCN(C2CCOCC2)CC3)c(-c2csc(N3C[C@@H]4C[C@]4(C(=O)O)C3)n2)c1 [Compound 150] | 100 (≈ 174 µM) | 44 (≈ 76.7 µM) | 9.7 (≈ 16.9 µM) | <24 | 7.62 |
| Cc1cc(C)c(OCc2ccc3c(c2)CCN(C2CCOCC2)C3)c(-c2csc(N3C[C@@H]4C[C@]4(C(=O)O)C3)n2)c1 [Compound 151] | 110 (≈ 197 µM) | 71 (≈ 127 µM) | 54 (≈ 96.5 µM) | <24 | 6.87 |
| Cc1cc(C)c(OCc2ccc3c(c2C)CCN(C2CCOCC2)C3)c(-c2csc(N3C[C@@H]4C[C@]4(C(=O)O)C3)n2)c1 [Compound 152] | 110 (≈ 192 µM) | 70 (≈ 122 µM) | 53 (≈ 92.4 µM) | <24 | 7.15 |
| Cc1ccc(OCc2ccc3c(c2)CCN(C2CCOCC2)C3)c(-c2csc(N3C[C@@H]4C[C@]4(C(=O)O)[C@H]3C)n2)c1 [Compound 153] | 120 (≈ 214 µM) | 72 (≈ 129 µM) | 47 (≈ 84 µM) | <24 | 7.85 |
| Cc1ccc(OCc2ccc3c(c2C)CCN(C2CCOCC2)C3)c(-c2csc(N3C[C@@H]4C[C@]4(C(=O)O)[C@H]3C)n2)c1 [Compound 154] | 110 (≈ 192 µM) | 65 (≈ 113 µM) | 25 (≈ 43.6 µM) | <24 | 8.40 |
| Cc1cccc(-c2csc(N3C[C@H]4C[C@@]4(C(=O)O)[C@@H]3C)n2)c1OCc1ccc2c(c1C)CCN(C1CCOCC1)C2 [Compound 155] | 96 (≈ 167 µM) | 69 (≈ 120 µM) | 61 (≈ 106 µM) | <24 | 7.34 |
| Cc1cccc(-c2csc(N3C[C@H]4C[C@@]4(C(=O)O)[C@@H]3C)n2)c1OCc1ccc2c(c1C)CCN(C1COC1)C2 [Compound 156] | > 140 | 0.5 (≈ 0.916 µM) | 8.9 (≈ 16.3 µM) | <24 | 6.41 |
| Cc1cc(COc2c(C)cccc2-c2csc(N3C[C@H]4C[C@@]4(C(=O)O)[C@@H]3C)n2)cc2c1CN(C1CCOCC1)CC2 [Compound 157] | 97 (≈ 169 µM) | 72 (≈ 125 µM) | 63 (≈ 110 µM) | <24 | 7.55 |
| Cc1cc(COc2c(C)cccc2-c2csc(N3C[C@H]4C[C@@]4(C(=O)O)[C@@H]3C)n2)cc2c1CN(C1COC1)CC2 [Compound 158] | 94 (≈ 172 µM) | 53 (≈ 97.1 µM) | 65 (≈ 119 µM) | <24 | 7.43 |
| COC[C@H]1N(c2nc(-c3cccc(C)c3OCc3ccc4c(c3C)CCN(C3CCOCC3)C4)cs2)C[C@@H]2C[C@@]21C(=O)O [Compound 159] | 120 (≈ 199 µM) | 95 (≈ 157 µM) | 89 (≈ 147 µM) | 30 | 7.36 |
| COC[C@H]1N(c2nc(-c3cccc(C)c3OCc3ccc4c(c3C)CCN(C3CCC3)C4)cs2)C[C@@H]2C[C@@]21C(=O)O [Compound 160] | 120 (≈ 209 µM) | < 0.1 | 75 (≈ 131 µM) | 38 | 6.98 |
| COC[C@H]1N(c2nc(-c3cccc(C)c3OCc3cc(C)c4c(c3)CCN(C3COC3)C4)cs2)C[C@@H]2C[C@@]21C(=O)O [Compound 161] | 110 (≈ 191 µM) | 62 (≈ 108 µM) | 76 (≈ 132 µM) | <24 | 8.15 |
| COC[C@H]1N(c2nc(-c3cccc(C)c3OCc3cc(C)c4c(c3)CCN(C3CCOCC3)C4)cs2)C[C@@H]2C[C@@]21C(=O)O [Compound 162] | 120 (≈ 199 µM) | 82 (≈ 136 µM) | 75 (≈ 124 µM) | 39 | 8.40 |
